Assay results taken from patent US11691962B2 (eXIthera Pharmaceuticals, Inc., priority 2018, dated 2023).

target: Factor XIa (Homo sapiens (Human), UniProt P03951); test: Factor XIa enzyme inhibition assay (dose response, fluorogenic AMC substrate); format: biochemical; conditions: read-out: hFXIa IC50
Procedure: • Assay buffer: 20 mM Hepes, pH 7.4; 150 mM NaCl; 0.02% Tween 20 • Compounds: 10 mM stocks in DMSO • Substrate: 20 mM Glp-Pro-Arg-AMC, 25 mg/2.3 mL H2O (store at +4° C.) [Factor XIa, thrombin, and trypsin] • 20 mM Pro-Phe-Arg-AMC (Bachem I-1295), 25 mg/2.2 mL H2O • or Boc-Leu-Gly-Arg-AMC (Bachem I-1105), 25 mg/2.07 mL H2O • (store at +4° C.) [Factor Xa] • Enzyme: Factor XIa; 0.25 μM in 50% glycerol (20 μg/mL) • Trypsin; 0.2 μM in 50% glycerol (4.8 μg/mL) • Thrombin; 0.2 μM in 50% glycerol (7.34 μg/mL) • Factor Xa; 0.2 μM in 50% glycerol (9.2 μg/mL) • These stocks are aliquoted (˜100 μL/aliquot) and stored at −20° C. Methods: • 1. Dilute the substrate to 100 μM in assay buffer (30 μL/6 mL). The enzyme is diluted to 0.5 nM just prior to use (12 μL/6 mL for Factor XIa; 15 μL/6 mL for all of the rest.) • 2. Pipette 50 μL of substrate into each well of the 96 well (12×8) microtiter plate. (Column 1 is used as the 100% activity control and receives no compound, and Column 12 is the blank and receives no enzyme.) Add an additional 46 μL to column 2. • 3. Pipette 4 μL of each compound into the appropriate well in column 2 of the plate (unknowns assayed in triplicate, standard assayed in duplicate). The final compound concentration will be […] of the stock. • 4. Serially two-fold dilute the compound by mixing the sample in column 2, removing 50 μL to the next well (column 3), mix and remove to column 4, etc. until column 11. After mixing column 11, remove 50 μL and discard. • 5. Pipette 50 μL of buffer into column 12. Initiate the reaction by adding 50 μL of enzyme solution to each well of columns 1-11 as rapidly as possible. • 6. Read the plate in a spectrophotometer (SpectraMax) at 30° C., wherein each well is measured every 60 s for 30 min. For Factor Xa assays, each well is measured every 1 min for a total of 60 min. • 7. For Factor XIa assays, the compounds are assayed, in duplicate, at 3 different starting concentrations, 20, 2, and 0.2 μM; 1:10, 1:100, and 1:1000 dilution of 10 mM stock or at 2, 0.2, and 0.02 μM; 1:100, 1:1000, and 1:10,000 dilution of 10 mM stock. Data for each concentration are combined for graphing and data fitting. • 8. Data can be used both for estimation of IC50 and for estimation of Kon.
Potential inhibitors of Factor XIa were evaluated using the following assay.
PyroGlu-Pro-Arg-7-methylaminocourin (AMC), available from CPC Scientific, Inc., is based on the substrate pyro-Glu-Pro-Arg-pNA (S-2366), available from Diapharma Group, Inc. (Columbus, Ohio), wherein the p-nitroanaline group is replaced with 7-methylaminocoumarin (AMC).
The final concentration of the substrate in the assay was 50 μM, and the final concentration of the enzyme was 0.25 nM. Inhibitors were tested by serial dilution over an appropriate range to yield a dose response curve for determination of the inhibitors' IC50 value. The assay mixture was read every minute for 30 minutes in order to generate progress curves. The plates were read in a Spectramax m5 Multimode Plate Reader (Molecular Devices LLC, Sunnyvale, Calif.). Dose response curves were fit to Equation 1 below in which A is the maximum inhibition, B is the minimum inhibition, C is the IC50, and D is the Hill coefficient. Y=[(A−B)/(1+(X/C)^D)]+B (Equation 1)

Sequence of Factor XIa (P03951 388-625): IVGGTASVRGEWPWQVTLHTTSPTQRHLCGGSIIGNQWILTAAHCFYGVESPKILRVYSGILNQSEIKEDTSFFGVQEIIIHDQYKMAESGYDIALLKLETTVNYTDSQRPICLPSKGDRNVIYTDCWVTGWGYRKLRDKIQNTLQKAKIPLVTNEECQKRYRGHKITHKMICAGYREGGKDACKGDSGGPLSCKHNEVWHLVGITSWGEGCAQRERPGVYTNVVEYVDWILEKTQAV
Sequence of Factor XIa (P03951 19-387 partner): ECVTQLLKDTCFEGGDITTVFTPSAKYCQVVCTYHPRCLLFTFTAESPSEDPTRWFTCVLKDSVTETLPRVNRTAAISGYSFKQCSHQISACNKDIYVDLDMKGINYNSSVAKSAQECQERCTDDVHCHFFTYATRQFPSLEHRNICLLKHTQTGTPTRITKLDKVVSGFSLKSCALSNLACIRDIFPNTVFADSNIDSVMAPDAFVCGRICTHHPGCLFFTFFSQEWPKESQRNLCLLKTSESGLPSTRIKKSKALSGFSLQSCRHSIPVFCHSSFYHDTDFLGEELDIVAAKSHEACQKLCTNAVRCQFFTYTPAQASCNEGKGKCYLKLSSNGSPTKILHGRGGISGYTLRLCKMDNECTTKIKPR

**Q.** CN(C(=O)[C@@H]1[C@@H](Cc2ccnc(N)c2)C(=O)N1C(=O)NC(C1CCCCC1)C(F)(F)F)c1ccnn1C (stereo in doubt) [Compound 1-6, (2S,3R)-3-((2-aminopyridin-4-yl)methyl)-N2-(1-methyl-1H-pyrazol-5-yl)-N1-((R)-1-cyclohexyl-2,2,2-trifluoroethyl)-N2-methyl-4-oxoazetidine-1,2-dicarboxamide] was tested. Which IC50 did it give?
**A.** 10 to 100 nM

**Q.** For Cc1cc(C[C@H]2C(=O)N(C(=O)NC(C3CCCCC3)C(F)(F)F)[C@@H]2C(=O)N(C)c2nccn2C)cc(N)n1 (stereo in doubt) [Compound 1-77, (2S,3R)-3-((2-amino-6-methylpyridin-4-yl)methyl)-N2-(1-methyl-1H-imidazol-2-yl)-N1-((R)-1-cyclohexyl-2,2,2-trifluoroethyl)-N2-methyl-4-oxoazetidine-1,2-dicarboxamide], which IC50 is on record?
**A.** 10 to 100 nM

**Q.** How did the IC50 turn out when CC[C@@H](NC(=O)N1C(=O)[C@H](Cc2ccnc(N(C)C)c2)[C@H]1C(=O)N(C)c1cnn(C)c1)c1ccccc1 [Compound 1-5, (2S,3R)-3-((2-dimethylaminopyridin-4-yl)methyl)-N2-(1-methyl-1H-pyrazol-4-yl)-N1-((R)-1-phenylpropyl)-N2-methyl-4-oxoazetidine-1,2-dicarboxamide] was run?
**A.** > 1000 nM

**Q.** How did the IC50 turn out when CC[C@H](c1cccc(Cl)c1)N(C)C(=O)N1C(=O)[C@H](Cc2ccnc(N)c2)[C@H]1C(=O)N(C)c1ccn(C)n1 [Compound 1-7, (2S,3R)-3-((2-aminopyridin-4-yl)methyl)-N2-(1-methyl-1H-pyrazol-3-yl)-N1-((R)-1-(3-chlorophenyl)propyl)-N1-methyl-N2-methyl-4-oxoazetidine-1,2-dicarboxamide] was run?
**A.** 10 to 100 nM

**Q.** CC[C@@H](NC(=O)N1C(=O)[C@H](Cc2ccnc(N)c2)[C@H]1C(=O)N(C)c1ccn(C)n1)c1cccc(C)c1 [Compound 1-14, (2S,3R)-3-((2-aminopyridin-4-yl)methyl)-N2-(1-methyl-1H-pyrazol-3-yl)-N1-((R)-1-(3-methylphenyl)propyl)-N2-methyl-4-oxoazetidine-1,2-dicarboxamide] was tested. Which IC50 did it give?
**A.** 10 to 100 nM

**Q.** Which IC50 does the source give for CC[C@@H](NC(=O)N1C(=O)[C@H](Cc2ccnc(N)c2)[C@H]1C(=O)N(C)c1ccn(C)n1)c1ccc(C)nc1 [Compound 1-20, (2S,3R)-3-((2-aminopyridin-4-yl)methyl)-N2-(1-methyl-1H-pyrazol-3-yl)-N1-((R)-1-(6-methylpyridin-3-yl)propyl)-N2-methyl-4-oxoazetidine-1,2-dicarboxamide] here?
**A.** < 10 nM

**Q.** How did the IC50 turn out when CC[C@@H](NC(=O)N1C(=O)[C@H](Cc2ccnc(N)c2)[C@H]1C(=O)N(C)c1ccsn1)c1ccccc1 [Compound 1-21, (2S,3R)-3-((2-aminopyridin-4-yl)methyl)-N2-(3-isothiazolyl)-N1-((R)-1-phenylpropyl)-N2-methyl-4-oxoazetidine-1,2-dicarboxamide] was run?
**A.** 10 to 100 nM

**Q.** With CC[C@@H](NC(=O)N1C(=O)[C@H](Cc2ccnc(NC(=O)OC(C)(C)C)c2)[C@H]1C(=O)N(C)c1cnn(C)c1)c1cccc(Cl)c1 [Compound 1-23, (2S,3R)-3-((2-(((tert-butoxy)carbonyl)amino)pyridin-4-yl)methyl)-N2-(1-methyl-1H-pyrazol-4-yl)-N1-((R)-1-(3-chlorophenyl)propyl)-N2-methyl-4-oxoazetidine-1,2-dicarboxamide] as the molecule, how does the IC50 read?
**A.** > 1000 nM

**Q.** CC[C@@H](NC(=O)N1C(=O)[C@H](Cc2ccnc(N)c2)[C@H]1C(=O)N(C)c1cscn1)c1cccc(C)c1 [Compound 1-24, (2S,3R)-3-((2-aminopyridin-4-yl)methyl)-N2-(4-thiazolyl)-N1-((R)-1-(3-methylphenyl)propyl)-N2-methyl-4-oxoazetidine-1,2-dicarboxamide] was tested. Which IC50 did it give?
**A.** < 10 nM

**Q.** For CN(C(=O)[C@@H]1[C@@H](Cc2ccnc(N)c2)C(=O)N1C(=O)NCc1cccc(Cl)c1)c1cnn(C)c1 [Compound 1-27, (2S,3R)-3-((2-aminopyridin-4-yl)methyl)-N2-(1-methyl-1H-pyrazol-4-yl)-N1-((3-chlorophenyl)methyl)-N2-methyl-4-oxoazetidine-1,2-dicarboxamide], which IC50 is on record?
**A.** 10 to 100 nM

**Q.** For CN(C(=O)[C@@H]1[C@@H](Cc2ccnc(N)c2)C(=O)N1C(=O)NCc1cccc(Cl)c1)c1cccs1 [Compound 1-29, (2S,3R)-3-((2-aminopyridin-4-yl)methyl)-N2-(thiophen-2-yl)-N1-((3-chlorophenyl)methyl)-N2-methyl-4-oxoazetidine-1,2-dicarboxamide], which IC50 is on record?
**A.** 10 to 100 nM

**Q.** With CN(C(=O)[C@@H]1[C@@H](Cc2ccnc(N)c2)C(=O)N1C(=O)N[C@@H](C1CC1)C(F)(F)F)c1ccn(C)n1 [Compound 1-30, (2S,3R)-3-((2-aminopyridin-4-yl)methyl)-N2-(1-methyl-1H-pyrazol-3-yl)-N1-((S)-1-cyclopropyl-2,2,2-trifluoroethyl)-N2-methyl-4-oxoazetidine-1,2-dicarboxamide] as the molecule, how does the IC50 read?
**A.** 10 to 100 nM

**Q.** For CN(C(=O)[C@@H]1[C@@H](Cc2ccnc(N)c2)C(=O)N1C(=O)NCc1cccc(F)c1)c1cn(C)cn1 [Compound 1-34, (2S,3R)-3-((2-aminopyridin-4-yl)methyl)-N2-(1-methyl-1H-imidazol-4-yl)-N1-((3-fluorophenyl)methyl)-N2-methyl-4-oxoazetidine-1,2-dicarboxamide], which IC50 is on record?
**A.** 100 to 1000 nM

**Q.** With CC[C@@H](NC(=O)N1C(=O)[C@H](Cc2ccnc(NC)c2)[C@H]1C(=O)N(C)c1ccnn1C)c1cccc(Cl)c1 [Compound 1-36, (2S,3R)-3-((2-methylaminopyridin-4-yl)methyl)-N2-(1-methyl-1H-pyrazol-5-yl)-N1-((R)-1-(3-chlorophenyl)propyl)-N2-methyl-4-oxoazetidine-1,2-dicarboxamide] as the molecule, how does the IC50 read?
**A.** 10 to 100 nM

**Q.** Which IC50 does the source give for CCNc1cc(C[C@H]2C(=O)N(C(=O)N[C@H](CC)c3cccc(Cl)c3)[C@@H]2C(=O)N(C)c2ccn(C)n2)ccn1 [Compound 1-39, (2S,3R)-3-((2-ethylaminopyridin-4-yl)methyl)-N2-(1-methyl-1H-pyrazol-3-yl)-N1-((R)-1-(3-chlorophenyl)propyl)-N2-methyl-4-oxoazetidine-1,2-dicarboxamide] here?
**A.** 10 to 100 nM

**Q.** With CC[C@@H](NC(=O)N1C(=O)[C@H](Cc2ccnc(NC)c2)[C@H]1C(=O)N(C)c1cccs1)c1ccccc1 [Compound 1-40, (2S,3R)-3-((2-methylaminopyridin-4-yl)methyl)-N2-(thiophen-2-yl)-N1-((R)-1-phenylpropyl)-N2-methyl-4-oxoazetidine-1,2-dicarboxamide] as the molecule, how does the IC50 read?
**A.** 10 to 100 nM

**Q.** Which IC50 does the source give for CC[C@@H](NC(=O)N1C(=O)[C@H](Cc2ccnc(N)c2)[C@H]1C(=O)N(C)c1ccn(C)n1)c1ccn(C)n1 [Compound 1-42, (2S,3R)-3-((2-aminopyridin-4-yl)methyl)-N2-(1-methyl-1H-pyrazol-3-yl)-N1-((R)-1-(1-methyl-1H-pyrazol-3-yl)propyl)-N2-methyl-4-oxoazetidine-1,2-dicarboxamide] here?
**A.** 100 to 1000 nM

**Q.** CC[C@@H](NC(=O)N1C(=O)[C@H](Cc2ccnc(N)c2)[C@H]1C(=O)N(C)c1cccs1)c1ccn(C)n1 [Compound 1-49, (2S,3R)-3-((2-aminopyridin-4-yl)methyl)-N2-(thiophen-2-yl)-N1-((R)-1-(1-methyl-1H-pyrazol-3-yl)propyl)-N2-methyl-4-oxoazetidine-1,2-dicarboxamide] was tested. Which IC50 did it give?
**A.** 10 to 100 nM

**Q.** With CC[C@@H](NC(=O)N1C(=O)[C@H](Cc2ccnc(N)c2)[C@H]1C(=O)N(C)c1ccn(C)n1)c1cccs1 [Compound 1-53, (2S,3R)-3-((2-aminopyridin-4-yl)methyl)-N2-(1-methyl-1H-pyrazol-3-yl)-N1-((R)-1-(thiophen-2-yl)propyl)-N2-methyl-4-oxoazetidine-1,2-dicarboxamide] as the molecule, how does the IC50 read?
**A.** 10 to 100 nM
